From US9540418B2, “Polypeptide specifically binding to rare earth nanoparticles and use thereof” (University of Science and Technology of China, priority 2012, dated 2017)

Experiments:
[1] = Binding ability of FITC-RE-1 to various inorganic nanomaterials (fluorescence spectrophotometer)
Experimental: 10 μg of FITC-RE-1 polypeptide was incubated with 100 μL of various inorganic nanomaterials (1 mg/mL) at room temperature for 1 hr, and then centrifuged at 12000 rpm for 10 min. The resulting precipitate was washed 3 times. Then, a fluorescence spectrophotometer (RF-5301 PC, Shimadzu, Japan) was used to detect FITC (emission wavelength: 535 nm). The standard curve of fluorescence intensity vs. concentration for FITC-RE-1 was used as control, and thus the binding ability of the various inorganic nanomaterials to FITC-RE-1 polypeptide was determined. […] However, RE-1 hardly bound to non rare-earth materials, such as diamond, TiO2, SiO2, SiO3, and nano-silver (FIG. 4).

[2] = Sedimentation / suspension time-dynamics curve of UCN (UV 500 nm); type: physicochemical; conditions: standing for 120 min; UCN with or without RE-1 coating
Experimental: 3 mg of UCN was mixed with 1.5 mg of RE-1 or its analogues RE-2, RE-3, or RE-5 as well as PEG, and the binding between them was performed according to a binding method. The excess and unbound RE-1 was washed off. The resultant precipitate was resuspended in 3 mL water, sonicated for 1 min, and then placed into a UV detection cell (X72053, Alpha Laboratories Ltd, UK). Observation was made using a UV spectrophotometer (DU-640, Beckman, USA) at an absorption wavelength of 500 nm for 120 min to obtain a time-dynamics curve.

HeLa-LC3 cells [3] = test: RE-1 blocking of nanophosphor-induced autophagy (LC3 aggregates and vacuoles); type: cell-based; conditions: nanophosphors coated with RE-1, 24 hr
Experimental: The rare-earth upconversion nanophosphors (UCN, UCP, UCN-S) coated with RE-1 were prepared as follows: 50 μg, 10 μg, and 350 μg RE-1 was mixed with 100 μg UCN, UCP, or UCN-S, respectively, incubated at 37° C. for 2 hr, centrifuged at 12000 rpm, and then washed with water for 3 times to remove the excess and unbound RE-1 peptides. The resultant precipitate was resuspended in 100 μL water.
HeLa-LC3 cells were inoculated into a 96-well cell culturing plate at a density of about 1-2×10^4 cells/well, and cultured overnight for further use. At first, the medium was replaced with fresh DMEM medium, to which UCN, UCP, or UCN-S with or without the coating of RE-1 peptides was added at different concentrations (0 μg/mL, 10 μg/mL, 100 μg/mL, 1000 μg/mL). After culturing for 24 hr, the fluorescence generated by GFP reporter gene was observed, imaged, and measured under a fluorescence microscope.
(§1) The ability to induce cell autophagy was estimated by determining the numbers of LC3 aggregates and vacuoles.

HeLa-LC3 cells [4] = test: RE-1 analogues blocking nanophosphor-induced autophagy (LC3 aggregates and vacuoles); type: cell-based
Experimental: UCN and UCP coated with RE-1 analogues RE-2, RE-3, or RE-5 were prepared as follows: 50 μg or 10 μg RE-1 analogues RE-2, RE-3, or RE-5 was mixed with 100 μg UCN or UCP, respectively, incubated at 37° C. for 2 hr, centrifuged at 12000 rpm, and then washed with water 3 times to remove the excess and unbound peptides. The resultant precipitate was resuspended in 100 μL water.
HeLa-LC3 cells were inoculated into a 96-well cell culture plate at a density of about 1-2×10^4 cells/well, and cultured overnight for further use. At first, the medium was replaced with fresh DMEM medium, and then 100 μg/mL UCN, UCN+RE-1, UCN+RE-2, UCN+RE-3, or UCN+RE-5 was added. An equal volume of PBS was used as blank. A mixture of 100 μg/mL UCN and 10 mg/mL PEG was used as negative control. A mixture of 100 mM trehalose and 50 μg RE-1 was used as positive control. After culturing for 24 hr, a fluorescence microscope was used to observe, image, and count.
HeLa-LC3 cells were inoculated into a 96-well cell culture plate at a density of about 1-2×10^4 cells/well, and cultured overnight for further use. At first, the medium was replaced with fresh DMEM medium, and then 100 μg/mL UCP, UCP+RE-1, UCP+RE-2, UCP+RE-3, or UCP+RE-5 was added. An equal volume of PBS was used as blank. After culturing for 24 hr, a fluorescence microscope was used to observe, image, and count.
as §1

[5] = system: LC3 type II in mice liver; test: Western blotting of LC3 in mice livers after tail vein injection; type: in vivo; conditions: 300 μg (15 mg/kg) tail vein, 24 hr
Experimental: Western blotting is performed as follows: After an incubation of 24 h, the cells are collected and lysed with lysis buffer (purchased from Beyotime Biotechnology, China). The lysate is boiled in boiling water for 10 min, subjected to 15% SDS-PAGE, and then transferred to nylon membrane (purchased from Amersham Inc.) by a wet transfer. In the Western blotting, Anti-LC3 (Light Chain 3 Protein Antibody, purchased from Novus Inc., Catalog #: NB 100-2220) is used as primary antibody; GAPDH (purchased from Millipore Inc.) is used as internal reference; and Horseradish peroxidase (HRP) conjugated goat anti-rabbit IgG (H+L) (Goat Anti-Rabbit IgG (H+L), HRP Conjugate) (purchased from Promega Inc.) is used as secondary antibody.
Balb/c mice (purchased from SLAC Laboratory Animal (Shanghai, China), 6 weeks old, and weighed 20 g when used) were bred in a sterile housing, and then 300 μg (dosage: 15 mg/kg) UCN, UCN+PEG (containing 10 mg PEG), UCN+RE-1, UCP, UCP+RE-1, or UCP+AP-1 was injected through tail vein. An equal volume of normal saline was injected as a control. After 24 hr, the livers of the mice were removed and subjected to western blotting assay.

## ACTARSPWICG [RE-1, RE-0 with terminal amino acids A and G added]
[1]; 10 μg FITC-RE-1, 1 mg/mL material, 1 hr, most strongly Y2O3, CeO2, Yb2O3, Nd2O3, UCN, UCN-S, UCP
  binding to rare-earth metal oxides and rare-earth upconversion nanophosphors: strongly bound
[1]; diamond, TiO2, SiO2, SiO3, nano-silver, 10 μg FITC-RE-1, 1 hr
  binding to non rare-earth materials: hardly bound
[2]
  suspension / sedimentation of UCN in water: still in suspension
HeLa-LC3 cells [3]
  inhibition of cell autophagy induced by UCN, UCP, and UCN-S: significantly inhibited
HeLa-LC3 cells [4]; 100 μg/mL, 24 hr
  rank of ability after coating UCN to inhibit cell autophagy induced by UCN: RE-1>RE-3>RE-5
HeLa-LC3 cells [4]; mixture of 100 mM trehalose and 50 μg RE-1
  inhibition of cell autophagy induced by Tre (trehalose): had no inhibition
[5]
  effect of RE-1 coating of UCN and UCP on LC3 type II in mice liver: significantly prevented the increase of LC3 type II
